Earlier results in patent US20070042451A1, “Glycine decarboxylase complex as a herbicidal target” (BASF Aktiengesellschaft, priority 2003, published 2007).

Tested on: glycine decarboxylase complex
Details: Navarre and Wolpert 1995

In the case of victorine, the “in vitro inhibition of the GDC activity” value is given as “inhibition of the GDC activity”.
